Results taken from the supplement of paper PMC5908809.

Columns and labels:
[1] = system: normal NK cells expanded with K562-aAPC; assay: percent inhibition of viability; higher = more inhibition; conditions: 72 h, IL-2 2.5 ng/mL
Procedure: (§1)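 Drug sensitivity and resistance testing on K562-aAPC-expanded normal NK cells: 5 concentrations (10-fold steps over a 10,000-fold range), 72 h at 37 °C, viability by CellTiter-Glo normalised to DMSO and benzethonium chloride controls; DSS from the fitted curve.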

DERL-7 (IL-2 2.5 ng/mL) [2] = assay: as above; conditions: 72 h
IMC-1 (IL-2 20 ng/mL) [3] = assay: as above; conditions: 72 h
KAI3 (IL-2 2.5 ng/mL) [4] = assay: as above; conditions: 72 h
KHYG-1 (IL-2 2.5 ng/mL) [5] = assay: as above; conditions: 72 h
NK-92 (IL-2 2.5 ng/mL) [6] = assay: as above; conditions: 72 h
NK-YS (IL-2 2.5 ng/mL) [7] = assay: as above; conditions: 72 h
NKL (IL-2 2.5 ng/mL) [8] = assay: as above; conditions: 72 h
SNK-6 (IL-2 2.5 ng/mL) [9] = assay: as above; conditions: 72 h
YT (IL-2 2.5 ng/mL) [10] = assay: as above; conditions: 72 h
[11] = system: normal primary NK cells, pool 1 (3 donors) (IL-2 2.5 ng/mL); assay: as above; conditions: 72 h
[12] = system: normal primary NK cells, pool 1 (3 donors), resting (IL-2 0 ng/mL); assay: as above; conditions: 72 h
[13] = system: normal primary NK cells, pool 2 (3 donors) (IL-2 2.5 ng/mL); assay: as above; conditions: 72 h
[14] = system: normal primary NK cells, pool 3 (3 donors) (IL-2 2.5 ng/mL); assay: as above; conditions: 72 h
[15] = system: normal NK cells expanded with K562-aAPC; assay: drug sensitivity score (DSS) (DSS units); higher = more sensitive; extreme values may be limits of the assay; conditions: 72 h; IL-2 2.5 ng/mL
Procedure: as §1

DERL-7 (IL-2 2.5 ng/mL) [16] = assay: as above; conditions: 72 h
IMC-1 (IL-2 20 ng/mL) [17] = assay: as above; conditions: 72 h
KAI3 (IL-2 2.5 ng/mL) [18] = assay: as above; conditions: 72 h
KHYG-1 (IL-2 2.5 ng/mL) [19] = assay: as above; conditions: 72 h
NK-92 (IL-2 2.5 ng/mL) [20] = assay: as above; conditions: 72 h
NK-YS (IL-2 2.5 ng/mL) [21] = assay: as above; conditions: 72 h
NKL (IL-2 2.5 ng/mL) [22] = assay: as above; conditions: 72 h
SNK-6 (IL-2 2.5 ng/mL) [23] = assay: as above; conditions: 72 h
YT (IL-2 2.5 ng/mL) [24] = assay: as above; conditions: 72 h
[25] = system: normal primary NK cells, pool 1 (3 donors) (IL-2 2.5 ng/mL); assay: as above; conditions: 72 h
[26] = system: normal primary NK cells, pool 1 (3 donors), resting (IL-2 0 ng/mL); assay: as above; conditions: 72 h
[27] = system: normal primary NK cells, pool 2 (3 donors) (IL-2 2.5 ng/mL); assay: as above; conditions: 72 h
[28] = system: normal primary NK cells, pool 3 (3 donors) (IL-2 2.5 ng/mL); assay: as above; conditions: 72 h

CC(C)(C)c1cnc(CSc2cnc(NC(=O)C3CCNCC3)s2)o1 [SNS-032] (max concentration tested 10000 nM)
percent inhibition of viability [%]
Conditions | 1 nM | 10 nM | 100 nM | 1000 nM | 10000 nM
DERL-7 (IL-2 2.5 ng/mL) [2] | 0.08 | -3.51 | 77.5 | 100 | 100
IMC-1 (IL-2 20 ng/mL) [3] | -4.98 | -6.51 | 97.6 | 99.1 | 98.8
KAI3 (IL-2 2.5 ng/mL) [4] | -8.15 | 9.55 | 57.9 | 103 | 98.3
KHYG-1 (IL-2 2.5 ng/mL) [5] | -2.99 | -6.55 | 4.29 | 102 | 102
NK-92 (IL-2 2.5 ng/mL) [6] | -11.5 | -4.07 | 11.5 | 98.8 | 101
NK-YS (IL-2 2.5 ng/mL) [7] | -1.14 | 9.07 | 83.6 | 100 | 99.8
NKL (IL-2 2.5 ng/mL) [8] | -10.4 | 11.6 | 97.8 | 106 | 103
SNK-6 (IL-2 2.5 ng/mL) [9] | 17.9 | 2.01 | 31.7 | 54 | 38
YT (IL-2 2.5 ng/mL) [10] | -0.35 | 4.14 | 57.7 | 103 | 101
[1] | 2.77 | 0 | 29.2 | 100 | 100
[11] | -14.2 | -9.83 | 88.9 | 98.2 | 98.8
[12] | -12.8 | -19.9 | 79.9 | 91.5 | 93.9
[13] | -21 | -13.7 | 80.7 | 94.5 | 96.5
[14] | -17.4 | -11.5 | 48.5 | 98.1 | 99

Conditions | drug sensitivity score
DERL-7 (IL-2 2.5 ng/mL) [16] | 26.9
IMC-1 (IL-2 20 ng/mL) [17] | 29.5
KAI3 (IL-2 2.5 ng/mL) [18] | 25.1
KHYG-1 (IL-2 2.5 ng/mL) [19] | 18.7
NK-92 (IL-2 2.5 ng/mL) [20] | 19.8
NK-YS (IL-2 2.5 ng/mL) [21] | 29
NKL (IL-2 2.5 ng/mL) [22] | 32.3
SNK-6 (IL-2 2.5 ng/mL) [23] | 13.4
YT (IL-2 2.5 ng/mL) [24] | 24.9
[15] | 22.3
[25] | 28.1
[26] | 26.1
[27] | 26.6
[28] | 23.9

O=C(O)CCCCC(CCSCc1ccccc1)SCc1ccccc1 (stereo not drawn) [CPI-613] (max concentration tested 10000 nM)
percent inhibition of viability [%]
Conditions | 1 nM | 10 nM | 100 nM | 1000 nM | 10000 nM
DERL-7 (IL-2 2.5 ng/mL) [2] | 0.05 | -0.43 | -0.74 | -7.69 | 0.16
IMC-1 (IL-2 20 ng/mL) [3] | -2.98 | -1.62 | -2.71 | -2.84 | 9.03
KAI3 (IL-2 2.5 ng/mL) [4] | 2.88 | -5.51 | 1.38 | 3.07 | 13.6
KHYG-1 (IL-2 2.5 ng/mL) [5] | -0.71 | -6.53 | -1.09 | 2.22 | 14.3
NK-92 (IL-2 2.5 ng/mL) [6] | -12.9 | -8.45 | -13 | 17.1 | 13.7
NK-YS (IL-2 2.5 ng/mL) [7] | -0.06 | -3.64 | -3.63 | 4.79 | 12.5
NKL (IL-2 2.5 ng/mL) [8] | -9.11 | -4.72 | -5.85 | 9.97 | -1.95
SNK-6 (IL-2 2.5 ng/mL) [9] | 2.68 | 9.26 | 7.02 | 3.27 | 15.4
YT (IL-2 2.5 ng/mL) [10] | -4.82 | -6.21 | -4.86 | 4.79 | 13.6
[1] | -7.1 | -6.01 | -4.94 | -0.06 | 8.33
[11] | -0.75 | 13.6 | 2.91 | 3.14 | 0.88
[12] | -1.85 | 9.03 | 13.2 | 15.7 | 14.9
[13] | -4.63 | 4.64 | 5.89 | 2.06 | 9.6
[14] | -7.27 | -0.78 | 1.21 | 3.31 | 2.34

Conditions | drug sensitivity score
DERL-7 (IL-2 2.5 ng/mL) [16] | 0
IMC-1 (IL-2 20 ng/mL) [17] | 0
KAI3 (IL-2 2.5 ng/mL) [18] | 0.36
KHYG-1 (IL-2 2.5 ng/mL) [19] | 0.38
NK-92 (IL-2 2.5 ng/mL) [20] | 1.68
NK-YS (IL-2 2.5 ng/mL) [21] | 0.31
NKL (IL-2 2.5 ng/mL) [22] | 0
SNK-6 (IL-2 2.5 ng/mL) [23] | 0.07
YT (IL-2 2.5 ng/mL) [24] | 0.45
[15] | 0
[25] | 0
[26] | 3.6
[27] | 0
[28] | 0
